The subject of test [1] is NFAT signaling pathway in Jurkat NFAT reporter cells. As to the kind of experiment: Jurkat NFAT reporter assay. In kind it is cell-based. Particulars: Homo sapiens, 30 min with compound, then soluble anti-human CD3/CD28 antibody for 6 hours, luciferase readout, read-out: EC50 (Group). Summed up:
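Jurkat cells bearing an NFAT-RE-driven luciferase reporter (1×10^5 per well) preincubated with Cbl-b inhibitor for 30 min, then stimulated 6 h with soluble anti-CD3/CD28. Luminescence read with Bio-Glo; values are fold change over anti-CD3/CD28-stimulated cells without inhibitor.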
(In general: Reporter assays use an easily measured gene product as a stand-in for the process of interest.)

The target in test [2] is T1, human recombinant CBL-b (human Biotin CBL-b recombinant protein a.a. 39-426) (Homo sapiens, UniProt Q13191).
T1 construct: human Biotin CBL-b recombinant protein a.a; 39-426; Biotin (biotinylated); made in house
T1 sequence (Q13191 39-426): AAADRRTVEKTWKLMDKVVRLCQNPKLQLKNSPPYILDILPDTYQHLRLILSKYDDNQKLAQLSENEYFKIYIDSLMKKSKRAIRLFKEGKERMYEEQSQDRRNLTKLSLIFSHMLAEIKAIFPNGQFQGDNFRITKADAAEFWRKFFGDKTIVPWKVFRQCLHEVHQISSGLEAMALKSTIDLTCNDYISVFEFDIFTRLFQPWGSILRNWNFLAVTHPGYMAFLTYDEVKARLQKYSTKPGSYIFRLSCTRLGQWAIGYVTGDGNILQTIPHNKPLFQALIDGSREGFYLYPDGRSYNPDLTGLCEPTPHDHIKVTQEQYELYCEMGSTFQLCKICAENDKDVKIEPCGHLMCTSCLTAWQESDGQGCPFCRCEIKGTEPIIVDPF
Kind of test: Biochemical assay for CBL-b inhibition (ligand displacement TR-FRET). In kind it is binding. Particulars: 50 nM CBL-b, 0.3 μM Bodipy FL-Probe, read-out: IC50 (CBL-b inhibition, group). Summed up:
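Biotinylated CBL-b (a.a. 39-426, 50 nM final) pre-incubated with compound 60 min at RT in HEPES/NaCl/Triton/BSA/TCEP buffer, then Bodipy FL probe (0.3 μM final) 60 min, then terbium-streptavidin 60 min. TR-FRET read at 665/615 nm; IC50 and % max inhibition from sigmoidal fits.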
For orientation: In TR-FRET formats the signal depends on donor and acceptor labels being close together.

A value given as a limit tells only on which side of the number the result lay.

On to `CCC(NC1CCCC1)c1cc(Cl)nc(N2Cc3ccc(C4(Cc5nncn5C)COC4)cc3C2=O)c1` (stereo not shown) [Compound 251, 2-(6-Chloro-4-(1-(cyclopentylamino)propyl)pyridin-2-yl)-6-(3-((4-methyl-4H-1,2,4-triazol-3-yl)methyl)oxetan-3-yl)isoindolin-1-one], for which the EC50 (in general, the midpoint of the concentration-response curve) in test [1] is less than 300 nM. For the same compound, the IC50 – broadly, the concentration at which inhibition is half-maximal – in test [2] was less than 80 nM.

Regarding `COC1CCCC1NCc1cc(Cl)nc(N2Cc3ccc(C4(Cc5nncn5C)COC4)cc3C2=O)c1` (stereo not shown) [Compound 253, 2-(6-Chloro-4-(((2-methoxycyclopentyl)amino)methyl)pyridin-2-yl)-6-(3-((4-methyl-4H-1,2,4-triazol-3-yl)methyl)oxetan-3-yl)isoindolin-1-one], the EC50 in test [1] was less than 300 nM. The IC50 in test [2] was less than 80 nM.

On to `Cn1cnnc1CC1(c2ccc3c(c2)C(=O)N(c2cc(CNCC4CC4)cc(Cl)n2)C3)CC2(CCC2)C1` [Compound 255, 2-(6-Chloro-4-(((cyclopropylmethyl)amino)methyl)pyridin-2-yl)-6-(2-((4-methyl-4H-1,2,4-triazol-3-yl)methyl)spiro[3.3]heptan-2-yl)isoindolin-1-one], for which, in test [1], the EC50 lay in the range of 1000 to 10000 nM. Besides, the IC50 in test [2] is less than 80 nM.

Consider `Cc1cc(CNCC2CC2)cc(N2Cc3c(cc(-c4ccc(F)cc4-c4nncn4C)cc3C(F)(F)F)C2=O)n1` [Compound 256, 2-(4-(((Cyclopropylmethyl)amino)methyl)-6-methylpyridin-2-yl)-6-(4-fluoro-2-(4-methyl-4H-1,2,4-triazol-3-yl)phenyl)-4-(trifluoromethyl)isoindolin-1-one], for which the EC50 in test [1] is 1000 to 10000 nM. The concentration for half-maximal inhibition (IC50) in test [2] was less than 80 nM.

As to `Cc1cc(CN2CCC3(CC3)C2)cc(N2Cc3ccc(-c4ccc(F)cc4-c4nncn4C)cc3C2=O)n1` [Compound 259], the concentration giving a half-maximal response (EC50) in test [1] was in the range of 1000 to 10000 nM. The IC50 in test [2] is less than 80 nM.

As for `Cc1cc(CNCC2CC(F)(F)C2)cc(N2Cc3ccc(-c4ccc(F)cc4-c4nncn4C)cc3C2=O)n1` [Compound 260, 2-(4-((((3,3-Difluorocyclobutyl)methyl)amino)methyl)-6-methylpyridin-2-yl)-6-(4-fluoro-2-(4-methyl-4H-1,2,4-triazol-3-yl)phenyl)isoindolin-1-one], in test [1], the EC50 was less than 300 nM. Further, in test [2], the IC50 was less than 80 nM.

`Cc1nc(N2Cc3ccc(-c4ccc(F)cc4-c4nncn4C)cc3C2=O)cc(CNCC2CC2)c1F` [Compound 261, 2-(4-(((Cyclopropylmethyl)amino)methyl)-5-fluoro-6-methylpyridin-2-yl)-6-(4-fluoro-2-(4-methyl-4H-1,2,4-triazol-3-yl)phenyl)isoindolin-1-one]: the EC50 in test [1] is 1000 to 10000 nM. In addition, the IC50 in test [2] is less than 80 nM.

Consider `Cc1cc(CNCC2CC2)cc(N2Cc3ccc(-c4c(F)cc(F)cc4-c4nncn4C)cc3C2=O)n1` [Compound 262], for which, in test [1], the EC50 is less than 300 nM. Further, the IC50 in test [2] was less than 80 nM.

As for `Cc1cc(CNCC2CC2)cc(N2Cc3ccc(-c4ncc(Cl)cc4-c4nncn4C)cc3C2=O)n1` [Compound 263, 6-(5-Chloro-3-(4-methyl-4H-1,2,4-triazol-3-yl)pyridin-2-yl)-2-(4-(((cyclo-propylmethyl)amino)methyl)-6-methylpyridin-2-yl)isoindolin-1-one], the EC50 in test [1] fell in the range of 1000 to 10000 nM. The IC50 in test [2] was less than 80 nM.

For `Cn1cnnc1-c1cc(F)ccc1-c1ccc2c(c1)C(=O)N(c1cc(CNCC3CC3)cc(C(F)(F)F)n1)C2` [Compound 265, 2-(4-(((Cyclopropylmethyl)amino)methyl)-6-(trifluoromethyl)pyridin-2-yl)-6-(4-fluoro-2-(4-methyl-4H-1,2,4-triazol-3-yl)phenyl)isoindolin-1-one], the EC50 in test [1] was less than 300 nM. Besides, the IC50 in test [2] is less than 80 nM.

Consider `Cc1cc(CNCC2CC2(F)F)cc(N2Cc3ccc(-c4ccc(Cl)cc4-c4nncn4C)cc3C2=O)n1` (stereo not shown) [Compound 269], for which the EC50 in test [1] was in the range of 300 to 1000 nM. Further, the IC50 in test [2] is less than 80 nM.

Source of the values: US20260226073A1 (AURIGENE ONCOLOGY LIMITED, priority 2023, published 2026).
